Source: the NIST ThermoML archive (doi:10.1021/acs.jced.6b00293)
Numbers after ± are expanded uncertainties.

How the values were obtained:
[1] = Boiling temperature at pressure P; conditions: Liquid, Ebulliometric method (Recirculating still)
[2] = Liquid, Ebulliometric method (Recirculating still)

Boiling temperature at pressure P ([1]; 20 kPa) [°C] | Boiling temperature at pressure P ([1]; 40 kPa) [°C] | Boiling temperature at pressure P ([1]; 60 kPa) [°C] | Boiling temperature at pressure P ([1]; 80 kPa) [°C] | Boiling temperature at pressure P ([1]; 101.3 kPa) [°C] | vapor or sublimation pressure ([2]; 315.14 K) [kPa] | vapor or sublimation pressure ([2]; 329.42 K) [kPa] | vapor or sublimation pressure ([2]; 338.61 K) [kPa] | vapor or sublimation pressure ([2]; 345.53 K) [kPa] | vapor or sublimation pressure ([2]; 351.62 K) [kPa] | Structure (SMILES)
34.77 ± 0.46 | 52.32 ± 0.65 | 63.93 ± 0.68 | 72.94 ± 0.72 | 80.96 ± 0.81 | – | – | – | – | – | C1CCCCC1 [cyclohexane]
– | – | – | – | – | 20 ± 1 | 40 ± 1 | 60 ± 1 | 80 ± 2 | 101.3 ± 1.8 | CCO [ethanol]
